Results as given in PubChem BioAssay AID2060484 (Molecular Pharmacology Branch, DTP, NCI, 2025).

System: SUM149PT spheroids with HUVEC/MSC, viability
Assay: Anticancer human tumor SUM149PT cell line growth inhibition [GQUAD];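 note: spheroids exposed to drugs for seven days before readout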;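 for viability, T/C: percent viability relative to DMSO vehicle control taken as 100%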
Conditions: for IC50: curve of first compound; for viability, T/C: stronger effect = lower value
Outline: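 Tumor cells were grown as complex spheroids with HUVEC endothelial cells and mesenchymal stem cells as stroma. G-quadruplex stabilizers were combined with targeted agents over half-log dilutions from near the clinical Cmax, or from 10 microM.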

[1] = second compound 0.0316 µM, first compound 0.0316 µM
[2] = second compound 0.0316 µM, first compound 0.1 µM
[3] = second compound 0.0316 µM, first compound 0.316 µM
[4] = second compound 0.0316 µM, first compound 1 µM
[5] = second compound 0.0316 µM, first compound 3.16 µM
[6] = second compound 0.0316 µM, first compound 10 µM
[7] = second compound 0.1 µM, first compound 0.0316 µM
[8] = second compound 0.1 µM, first compound 0.1 µM
[9] = second compound 0.1 µM, first compound 0.316 µM
[10] = second compound 0.1 µM, first compound 1 µM
[11] = second compound 0.1 µM, first compound 3.16 µM
[12] = second compound 0.1 µM, first compound 10 µM
[13] = second compound 0.316 µM, first compound 0.0316 µM
[14] = second compound 0.316 µM, first compound 0.1 µM
[15] = second compound 0.316 µM, first compound 0.316 µM
[16] = second compound 0.316 µM, first compound 1 µM
[17] = second compound 0.316 µM, first compound 3.16 µM
[18] = second compound 0.316 µM, first compound 10 µM
[19] = second compound 1 µM, first compound 0.0316 µM
[20] = second compound 1 µM, first compound 0.1 µM
[21] = second compound 1 µM, first compound 0.316 µM
[22] = second compound 1 µM, first compound 1 µM
[23] = second compound 1 µM, first compound 3.16 µM
[24] = second compound 1 µM, first compound 10 µM
[25] = second compound 3.16 µM, first compound 0.0316 µM
[26] = second compound 3.16 µM, first compound 0.1 µM
[27] = second compound 3.16 µM, first compound 0.316 µM
[28] = second compound 3.16 µM, first compound 1 µM
[29] = second compound 3.16 µM, first compound 3.16 µM
[30] = second compound 3.16 µM, first compound 10 µM
[31] = second compound 10 µM, first compound 0.0316 µM
[32] = second compound 10 µM, first compound 0.1 µM
[33] = second compound 10 µM, first compound 0.316 µM
[34] = second compound 10 µM, first compound 1 µM
[35] = second compound 10 µM, first compound 3.16 µM
[36] = second compound 10 µM, first compound 10 µM

SMILES: C=CC(=O)N1CCN(c2nc(=O)n(-c3c(C)ccnc3C(C)C)c3nc(-c4c(O)cccc4F)c(F)cc23)C(C)C1 (stereo unspecified) + Cc1[nH]c2ccc(F)cc2c1-c1nc2c3cccnc3c3ncccc3c2[nH]1
- IC50 (second compound 0.0316 µM): > 10000 nM
- IC50 (second compound 0.1 µM): > 10000 nM
- IC50 (second compound 0.316 µM): > 10000 nM
- IC50 (second compound 1 µM): > 10000 nM
- IC50 (second compound 3.16 µM): > 10000 nM
- IC50 (second compound 10 µM): > 10000 nM
- viability, T/C [1]: 106%
- viability, T/C [2]: 91.6%
- viability, T/C [3]: 99.1%
- viability, T/C [4]: 108%
- viability, T/C [5]: 125%
- viability, T/C [6]: 117%
- viability, T/C [7]: 116%
- viability, T/C [8]: 93.8%
- viability, T/C [9]: 111%
- viability, T/C [10]: 116%
- viability, T/C [11]: 124%
- viability, T/C [12]: 114%
- viability, T/C [13]: 94.3%
- viability, T/C [14]: 107%
- viability, T/C [15]: 95.6%
- viability, T/C [16]: 112%
- viability, T/C [17]: 122%
- viability, T/C [18]: 108%
- viability, T/C [19]: 97.9%
- viability, T/C [20]: 97.6%
- viability, T/C [21]: 112%
- viability, T/C [22]: 118%
- viability, T/C [23]: 120%
- viability, T/C [24]: 114%
- viability, T/C [25]: 99.7%
- viability, T/C [26]: 86%
- viability, T/C [27]: 102%
- viability, T/C [28]: 109%
- viability, T/C [29]: 115%
- viability, T/C [30]: 114%
- viability, T/C [31]: 92%
- viability, T/C [32]: 80.6%
- viability, T/C [33]: 100%
- viability, T/C [34]: 106%
- viability, T/C [35]: 111%
- viability, T/C [36]: 114%

SMILES: COc1cc(C2c3cc4c(cc3C(OC3OC5COC(C)OC5C(O)C3O)C3COC(=O)C23)OCO4)cc(OC)c1O (stereo unspecified) + Cc1[nH]c2ccc(F)cc2c1-c1nc2c3cccnc3c3ncccc3c2[nH]1
- IC50 (second compound 0.0316 µM): 875 nM
- IC50 (second compound 0.1 µM): 554 nM
- IC50 (second compound 0.316 µM): 784 nM
- IC50 (second compound 1 µM): 830 nM
- IC50 (second compound 3.16 µM): 807 nM
- IC50 (second compound 10 µM): 607 nM
- viability, T/C [1]: 102%
- viability, T/C [2]: 86.1%
- viability, T/C [3]: 56.3%
- viability, T/C [4]: 49.9%
- viability, T/C [5]: 38.5%
- viability, T/C [6]: 18.4%
- viability, T/C [7]: 105%
- viability, T/C [8]: 77.7%
- viability, T/C [9]: 50.7%
- viability, T/C [10]: 47.1%
- viability, T/C [11]: 36.8%
- viability, T/C [12]: 18.5%
- viability, T/C [13]: 93.2%
- viability, T/C [14]: 82.3%
- viability, T/C [15]: 54.4%
- viability, T/C [16]: 46.9%
- viability, T/C [17]: 38.2%
- viability, T/C [18]: 15.4%
- viability, T/C [19]: 97.6%
- viability, T/C [20]: 84.4%
- viability, T/C [21]: 51.3%
- viability, T/C [22]: 54%
- viability, T/C [23]: 36.5%
- viability, T/C [24]: 13.5%
- viability, T/C [25]: 88.2%
- viability, T/C [26]: 77.3%
- viability, T/C [27]: 58.2%
- viability, T/C [28]: 49.3%
- viability, T/C [29]: 33.3%
- viability, T/C [30]: 12.9%
- viability, T/C [31]: 81.9%
- viability, T/C [32]: 74.7%
- viability, T/C [33]: 48.2%
- viability, T/C [34]: 49.4%
- viability, T/C [35]: 33.5%
- viability, T/C [36]: 14.3%

SMILES: COc1cccc2c1C(=O)c1c(O)c3c(c(O)c1C2=O)CC(O)(C(=O)CO)CC3OC1CC(N)C(O)C(C)O1 (stereo unspecified) + Cc1[nH]c2ccc(F)cc2c1-c1nc2c3cccnc3c3ncccc3c2[nH]1
- IC50 (second compound 0.0316 µM): 204 nM
- IC50 (second compound 0.1 µM): 203 nM
- IC50 (second compound 0.316 µM): 190 nM
- IC50 (second compound 1 µM): 201 nM
- IC50 (second compound 3.16 µM): 171 nM
- IC50 (second compound 10 µM): 145 nM
- viability, T/C [1]: 91.3%
- viability, T/C [2]: 62.5%
- viability, T/C [3]: 44.3%
- viability, T/C [4]: 19.1%
- viability, T/C [5]: 2.87%
- viability, T/C [6]: 0.48%
- viability, T/C [7]: 91.1%
- viability, T/C [8]: 62.1%
- viability, T/C [9]: 45.2%
- viability, T/C [10]: 16.8%
- viability, T/C [11]: 2.57%
- viability, T/C [12]: 1.39%
- viability, T/C [13]: 84.3%
- viability, T/C [14]: 60.2%
- viability, T/C [15]: 43%
- viability, T/C [16]: 18.9%
- viability, T/C [17]: 3.58%
- viability, T/C [18]: 1.15%
- viability, T/C [19]: 94.7%
- viability, T/C [20]: 61.9%
- viability, T/C [21]: 44.7%
- viability, T/C [22]: 19.4%
- viability, T/C [23]: 2.12%
- viability, T/C [24]: 1.25%
- viability, T/C [25]: 82.6%
- viability, T/C [26]: 58.5%
- viability, T/C [27]: 40.8%
- viability, T/C [28]: 16.7%
- viability, T/C [29]: 4.43%
- viability, T/C [30]: 1.38%
- viability, T/C [31]: 90.3%
- viability, T/C [32]: 54%
- viability, T/C [33]: 39.5%
- viability, T/C [34]: 15.7%
- viability, T/C [35]: 3.44%
- viability, T/C [36]: 0.4%
